Test results reported in publication PMC4585840 (Scientific Reports, 2015).

Key:
RCasp6 [1] = target: T1, RCasp6 (Homo sapiens, UniProt P55212); assay: in vitro fluorogenic Casp6 activity assay (Ac-VEID-AFC); assay type: biochemical; settings: 10 μM DTT; Fig. 1c
T1 construct: The zymogen is cleaved at three distinct sites to remove the prodomain and linker regions in order to obtain an active enzyme; His tag (C); made in house; host or cells: E. coli BL21 (DE3)pLysS
T1 sequence (P55212 24-179 limits assumed): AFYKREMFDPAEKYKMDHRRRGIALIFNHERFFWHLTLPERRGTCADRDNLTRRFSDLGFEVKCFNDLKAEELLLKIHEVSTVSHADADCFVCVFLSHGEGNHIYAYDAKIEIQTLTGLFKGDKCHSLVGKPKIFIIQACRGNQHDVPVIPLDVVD
T1 sequence (P55212 194-293 limits assumed): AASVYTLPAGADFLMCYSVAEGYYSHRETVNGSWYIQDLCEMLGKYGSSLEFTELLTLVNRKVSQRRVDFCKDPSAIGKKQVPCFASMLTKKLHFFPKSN

RCasp1 = target: T2, RCasp1 (Homo sapiens, UniProt P29466); assay: in vitro fluorogenic Casp1 activity assay (z-YVAD-AFC); assay type: biochemical; settings: Fig. 1g
T2 construct: purchased Biovision
T2 sequence (P29466 120-404): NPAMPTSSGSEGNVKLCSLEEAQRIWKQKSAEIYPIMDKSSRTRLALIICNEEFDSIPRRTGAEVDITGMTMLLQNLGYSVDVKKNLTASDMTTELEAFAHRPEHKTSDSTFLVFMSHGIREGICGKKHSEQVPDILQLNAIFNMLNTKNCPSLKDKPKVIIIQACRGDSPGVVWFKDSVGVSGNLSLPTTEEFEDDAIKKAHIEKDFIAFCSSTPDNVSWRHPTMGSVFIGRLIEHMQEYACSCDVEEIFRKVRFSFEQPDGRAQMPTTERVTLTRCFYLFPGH
Procedure: (§1) Activity assays for RCasp1 (Biovision, Millpitas, CA, USA) and RCasp3 (Enzo Lifesciences) used Z-Tyr-Val-Ala-Asp-7-Amino-4-trifluoromethylcoumarin (z-YVAD-AFC: Enzo LifeSciences,), and Ac-Asp-Glu-Val-Asp-7-Amino-4-trifluoromethylcouramin (Ac-DEVD-AFC: Enzo LifeSciences), respectively. To confirm that these substrates report caspase activity and not proteasomal caspase-like enzyme activity, 1 μM pan-caspase inhibitor, Q-VD-OPh (Sigma-Aldrich) or 0.1 μM proteasome inhibitor, bortezomib (Calbiochem, MA, USA) were tested on 20 nM RCasp3 or 40–60 μg of mouse liver protein extracts.

RCasp6 [2] = target: T1, RCasp6; assay: in vitro tubulin cleavage assay with RCasp6; assay type: biochemical; settings: 20 nM RCasp6, 10 μM DTT, 10 hours, western blot densitometry; read-out: IC50, cleavage of tubulin by RCasp6 (Tub∆Casp6 relative to total tubulin)
Procedure: Phenothiazines were mixed with 20 nM RCasp6 or RCasp3, 10 μM DTT, and 7.5 nM BSA in SB and 36 μg HCT116 protein extracts added before incubation at 37 °C for 10 hours, western blotting, and densitometry for tubulin-cleaved by Casp6 (Tub∆Casp6) and total tubulin as described in the western blot section. The IC50 was determined by a non-linear regression fit for log inhibitor vs caspase activity with a Hill slope of −1 using GraphPad Prism 5.0.
(§2) The 10630 (1:10,000) and GN60622 (1:10,000) neoepitope antibodies against the p20 subunit of active Casp6[16] and Tub∆Casp6[23], respectively, were generated in our laboratory. The β-actin clone AC-15 (1:5000, Sigma-Aldrich), Casp6 p10 clone B93-4 (1:250, BD Canada, Mississauga, ON, CA), Casp3, and full-length α-tubulin (1:1000, Cell Signaling Technology Inc., Danvers, MA, USA) antibodies were diluted in 5% non-fat dry milk in Tris-buffered saline containing 0.1% Tween-20 (Sigma-Aldrich). […] Secondary anti-mouse conjugated to alkaline phosphatase (Jackson Immunoresearch Laboratories Inc., West Grove, PA) was developed with nitro-blue tetrazolium (ThermoSci) and 5-bromo-4-chloro-3′-indolyphosphate (ThermoSci).

RCasp3 = target: T3, RCasp3 (Homo sapiens, UniProt P42574); assay: in vitro tubulin cleavage assay with RCasp3; assay type: biochemical; settings: 20 nM RCasp3, 10 μM DTT, 10 hours, western blot densitometry; read-out: IC50 on RCasp3-cleaved tubulin
T3 construct: Active Casp6 and Casp3 represented >99% of the purified enzyme; purchased Enzo Lifesciences
T3 sequence (P42574 29-175 limits assumed): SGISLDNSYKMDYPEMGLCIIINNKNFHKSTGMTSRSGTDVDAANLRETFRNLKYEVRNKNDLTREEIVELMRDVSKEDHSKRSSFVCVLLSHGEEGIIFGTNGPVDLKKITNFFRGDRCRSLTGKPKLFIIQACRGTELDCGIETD
T3 sequence (P42574 176-277 limits assumed): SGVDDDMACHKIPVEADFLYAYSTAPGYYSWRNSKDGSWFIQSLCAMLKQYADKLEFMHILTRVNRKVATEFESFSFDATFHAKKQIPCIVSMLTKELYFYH

RCasp6 [3] = target: T1, RCasp6; assay: inhibitor kinetic studies (Michaelis-Menten / Lineweaver-Burk) on RCasp6; assay type: biochemical; settings: competitive inhibition model, nonlinear regression, Ac-VEID-AFC substrate, 10 nM RCasp6
HCT116 cells = assay: cell viability (microscopy and MTT) in HCT116 cells; assay type: cell-based, human; settings: 2 hours
Procedure: (§3) HCT116 cells, plated at a density of 1 × 10^5 cells/well and human neurons, plated at a density of 6 × 10^6 cells/well on poly-L-lysine were treated with PBS or phenothiazines for 2 hours. The media was replaced before acquiring images with the Nikon Eclipse Ti microscope and the NIS-Elements (Version 3.10) software. MTT assays: Cells were plated in 96-well plates at 1 × 10^4 or 1 × 10^5 cells per well for 24 hours before treatments with phenothiazines or PBS. After 2 hours, fresh media containing […] MTT (3-(4,5-dimethylthiazol-2-yl)-2,5-diphenyltetrazolium bromide) (Sigma-Aldrich) was added and the cells were incubated for 4 hours at 37 °C in 5% CO2. The media was removed, formazan crystals were dissolved in DMSO, and the absorbance was measured at 560 nm and 670 nm using the BioTek Synergy H4 plate reader.

human primary neurons = assay: cell viability (microscopy) in human primary neurons; assay type: cell-based; settings: phase contrast microscopy, 2 hours
Procedure: as §3

Casp6 = target: T4, Casp6 (Homo sapiens, UniProt P55212); assay: Casp6 activity in Casp6p20p10-transfected HCT116 cells; assay type: cell-based; set-up: for active Casp6p20 subunit (p20), full length Casp6 lacking its pro-domain; Casp6p20p10 (p20p10); expressed in transfected cells; host or cells: HCT116 human colon carcinoma cells; settings: transfected HCT116, 2 hrs; 100 μM and 1 mM methylene blue, 50 μM azure A, 10 μM and 100 μM azure B
T4 sequence (P55212 24-179 limits assumed): T1 sequence (P55212 24-179 limits assumed)
T4 sequence (P55212 194-293 limits assumed): T1 sequence (P55212 194-293 limits assumed)
Procedure: as §1
Human colon carcinoma (HCT116) cells, cultured as recommended (ATCC: Manassas, VA, USA), were transfected with 1 μg pCep4βCasp6p20p10 and 8 μg polyethyleneimine (Polysciences Inc., Warrington, PA, USA), and grown 24 hrs before treatment with PBS and phenothiazines for 2 hours. Human primary neurons were cultured from fetal brain cortical areas obtained under ethical guidelines and approved by the McGill University’s institutional review board as previously described. Human primary neurons plated in poly-L-lysine -coated 6-well plates at a density of 3 × 10^6 cells/mL were serum-deprived for 2 hours in the presence of phenothiazines or an equivalent volume of PBS. Proteins were harvested in cell lysis buffer (CLB; 50mM HEPES, 0.1% CHAPS, 0.1mM EDTA).
as §2

- concentration at which reduction in Casp6 activity was observed (RCasp6 [1]): 100 pM
- inhibition of RCasp1 in the fluorogenic assay (RCasp1): dose dependent inhibition
- IC50 (RCasp6 [2]): 10.6 µM
- IC50 (RCasp3): 14.2 µM
- Ki (RCasp6 [3]): 50.5 µM
- Casp6 activity on the Ac-VEID-AFC peptide substrate (Casp6): significantly inhibited
SMILES: CN(C)c1ccc2nc3ccc(=[N+](C)C)cc-3sc2c1 [methylene blue, [7-(dimethylamino)phenothiazin-3-ylidene]-dimethylazanium;chloride]
- concentration that decreased MTT absorbance to almost nothing (toxicity) (HCT116 cells; HCT116, MTT assay): 10000 µM
- concentration up to which MTT absorbance was similar to PBS-treated cells (HCT116 cells; HCT116, MTT assay): up to 1 mM
- concentration at which cells retained morphology and confluence comparable to PBS-treated controls (HCT116 cells; HCT116, phase contrast microscopy): 100 μM
- concentration above which cell body size and axonal fragmentation increased (human primary neurons): above 100 μM
